Results as given in patent US6943189B2, “Combination therapy employing ileal bile acid transport inhibiting benzothiepines and HMG CO-A reductase inhibitors” (G.D. Searle & Co., priority 1994, dated 2005).
pIC50: −log10 of the molar value.

Biological target: T1, human IBAT (Homo sapiens, UniProt Q12908)
T1 construct: expressed in transfected cells; host or cells: Baby hamster kidney (BHK) cells, clone H14
T1 sequence (Q12908 1-348): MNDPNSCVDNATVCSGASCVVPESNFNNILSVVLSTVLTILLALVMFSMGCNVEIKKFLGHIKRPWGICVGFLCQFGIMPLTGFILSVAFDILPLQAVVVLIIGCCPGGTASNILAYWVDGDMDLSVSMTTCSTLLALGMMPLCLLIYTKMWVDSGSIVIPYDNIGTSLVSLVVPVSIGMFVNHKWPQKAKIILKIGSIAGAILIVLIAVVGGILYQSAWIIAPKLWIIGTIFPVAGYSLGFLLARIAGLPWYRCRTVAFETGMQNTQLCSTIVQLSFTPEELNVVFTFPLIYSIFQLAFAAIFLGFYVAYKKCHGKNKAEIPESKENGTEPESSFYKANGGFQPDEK
Experiment: In vitro assay of compounds that inhibit IBAT-mediated uptake of [14C]-taurocholate (TC) in H14 cells
Type: cell-based
Details: [14C]-taurocholate uptake, read-out: Human TC IC50
Procedure: In Vitro Assay of Compounds That Inhibit IBAT-Mediated Uptake of [^14C]-Taurocholate (TC) in H14 Cells
Baby hamster kidney cells (BHK) transfected with the cDNA of human IBAT (H14 cells) are seeded at 60,000 cells/well in 96 well Top-Count tissue culture plates for assays run within in 24 hours of seeding, 30,000 cells/well for assays run within 48 hours, and 10,000 cells/well for assays run within 72 hours.
On the day of assay, the cell monolayer is gently washed once with […] assay buffer (Dulbecco's Modified Eaglets medium with 4.5 g/L glucose+0.2% (w/v) fatty acid free bovine serum albumin- (FAF)BSA). To each well 50 ml of a two-fold concentrate of test compound in assay buffer is added along with 50 ml of […] [^14C]-taurocholate in assay buffer (final concentration of […] [^14C]-taurocholate). The cell culture plates are incubated 2 hours at 37° C. prior to gently washing each well twice with […] 4° C. Dulbecco's phosphate-buffered saline (PBS) containing 0.2% (w/v) (FAF)BSA. The wells are then gently washed once with […] 4° C. PBS without (FAF)BSA. To each 200 ml of liquid scintillation counting fluid is added, the plates are heat sealed and shaken for 30 minutes at room temperature prior to measuring the amount of radioactivity in each well on a Packard Top-Count instrument.
For CCCC[C@]1(CC)CS(=O)(=O)c2cc(OCCOCCOCCOc3ccc4c(c3)S(=O)(=O)C[C@@](CC)(CCCC)[C@H](O)[C@@H]4c3ccccc3)ccc2[C@@H](c2ccccc2)[C@H]1O [Example 135], the pIC50 was 4.66. CCCC[C@@]1(CC)CS(=O)(=O)c2cc(OCCOCCOCCOc3ccc4c(c3)S(=O)(=O)C[C@@](CC)(CCCC)[C@@H](O)[C@H]4c3ccccc3)ccc2[C@@H](c2ccccc2)[C@H]1O [Example 137] gave a pIC50 of 5.62. CCCCC1(CC)CS(=O)(=O)c2ccc(OC)cc2C(c2ccccc2F)C1O (stereo not drawn) [Example 278] showed a pIC50 of 5.52. For CCCCC1(CC)CS(=O)(=O)c2ccc(OC)cc2C(c2cccc(F)c2)C1O (stereo not drawn) [Example 279], the pIC50 was 6.40. CCCCC1(CCCC)CS(=O)(=O)c2ccc(NC(=O)OCc3ccccc3)cc2[C@@H](c2ccccc2)[C@H]1O [Example 291] showed a pIC50 of 6.22. With CCCCC1(CCCC)CS(=O)(=O)c2ccc(NCc3ccccc3)cc2[C@@H](c2ccccc2)[C@H]1O [Example 293] the pIC50 was 5.72. Work on CCCCC1(CC)CS(=O)(=O)c2ccc(N(C)C)cc2C(c2ccc(OCCOCCOCCOc3ccc(C4c5cc(N(C)C)ccc5S(=O)(=O)CC(CC)(CCCC)C4O)cc3)cc2)C1O (stereo not drawn) [Example 1211] yielded a pIC50 of 6.55. In the case of CCCCC1(CCCC)CS(=O)(=O)c2ccc(NC(C)(C)C)cc2C(c2ccc(F)cc2)C1O (stereo not drawn) [Example 1227], the pIC50 was 6.60. CCCCC1(CCCC)CS(=O)(=O)c2ccc(N(C)C)cc2C(c2ccc(OCCOCCOCCOc3ccc(C4c5cc(N(C)C)ccc5S(=O)(=O)CC(CCCC)(CCCC)C4O)cc3)cc2)C1O (stereo not drawn) [Example 1261] gave a pIC50 of 7.72. CCCCC1(CCCC)CS(=O)(=O)c2ccc(N(C)C)cc2C(c2ccc(OCCCCCCCCCCI)cc2)C1O (stereo not drawn) [Example 1269] gave a pIC50 of 7.62. For CCCCC1(CCCC)CS(=O)(=O)c2ccc(N(C)C)cc2C(c2ccc(OCCCCBr)c(F)c2)C1O (stereo not drawn) [Example 1270], the pIC50 was 7.62. Work on CCCCC1(CCCC)CS(=O)(=O)c2ccc(N(C)C)cc2C(c2ccc(OCCOCC[S+](CC)CC)c(F)c2)C1O (stereo not drawn) [Example 1299] yielded a pIC50 of 7.92. With CCCCC1(CCCC)CS(=O)(=O)c2ccc(N(C)C)cc2C(c2ccc(OCCCCCCCCCCOc3ccccc3[N+](C)(C)CC)cc2)C1O (stereo not drawn) [Example 1351] the pIC50 was 6.36. For CCCCC1(CCCC)CS(=O)(=O)c2ccc(N(C)C)cc2C(c2cccc(OCCOCCOCC[N+](CC)(CCCc3ccccc3)CCCc3ccccc3)c2)C1O (stereo not drawn) [Example 1449], the pIC50 was 7.28. CCCCC1(CCCC)CS(=O)(=O)c2ccc(N(C)C)cc2C(c2ccccc2)C1O (stereo not drawn) [Example 1450] showed a pIC50 of 7.41. With CCCCC1(CCCC)CS(=O)(=O)c2ccc(N(C)C)cc2C(c2cccc(NCCCS(=O)(=O)O)c2)C1O (stereo not drawn) [Example 1451] the pIC50 was 7.85.

Same assay, conditions: [14C]-taurocholate uptake, read-out: IC50 (In vitro Taurocholate Cell Uptake)
For CCCCC1(CC)CS(=O)(=O)c2ccccc2C(=C2CCCCC2)C1O (stereo not drawn) [Example 10b, 3-Butyl-3-ethyl-4-hydroxy-5-cyclohexylidine-2,3,4,5-tetraydrobenzothiepine-1,1-dioxide], the pIC50 was 4.82.

System: not listed separately
Experiment: Rat Alzet minipump model: fecal weight and fecal bile acid concentration (FBA)
Type: in vivo
Details: 20 MPL/DAY, mean (SEM)
In the case of CCCC[C@]1(CC)CS(=O)(=O)c2cc(OC)ccc2[C@@H](c2ccccc2)[C@H]1O [Example 25, (3a,4b,5b) 3-Butyl-3-ethyl-4-hydroxy-8-methoxy-5-phenyl-2,3,4,5-tetrahydrobenzothiepine-1,1-dioxide], the “24 HR. FECAL WT” value was 5.7 (0.4) G.

System: uptake of [14C]-alanine in H14 cells
Experiment: In vitro assay of compounds that inhibit uptake of [14C]-alanine (H14 cells)
Type: cell-based, hamster
Details: Mesocricetus auratus
Compound CCCCC1(CC)CS(=O)(=O)c2ccccc2C(=C2CCCCC2)C1O (stereo not drawn) [Example 10b, 3-Butyl-3-ethyl-4-hydroxy-5-cyclohexylidine-2,3,4,5-tetraydrobenzothiepine-1,1-dioxide] has an inhibition at 100 µM of 68.6%.

Same assay, conditions: Mesocricetus auratus; @ 1.0 μM; read-out: Alanine Uptake Percent Inhibition @ μM
Work on CCCC[C@]1(CC)CS(=O)(=O)c2ccc(NC(=O)CCCCCCCCCCC(=O)Nc3ccc4c(c3)[C@@H](c3ccccc3)[C@@H](O)[C@](CC)(CCCC)CS4(=O)=O)cc2[C@@H](c2ccccc2)[C@H]1O [Example 101] yielded an inhibition at 1 µM of 0%.

System: not listed separately
Experiment: Cholesterol-fed hamsters: fecal weight and fecal bile acid concentration (FBA)
Type: in vivo, hamster
Details: mean (SEM), 4% cholestyramine or 0.2% Cpd. No. 25
Procedure: Measurement of Fecal Bile Acid Concentration (FBA)
Total fecal output from individually housed hamsters was collected for 24 or 48 hours, dried under a stream of nitrogen, pulverized and weighed. Approximately 0.1 gram was weighed out and extracted into an organic solvent (butanol/water). Following separation and drying, the residue was dissolved in methanol and the amount of bile acid present was measured enzymatically using the 3a-hydroxysteroid steroid dehydrogenase reaction with bile acids to reduce NAD. (Reference: Mashige, F., et al. (1981) Clin. Chem. 27, 1352).
In the case of CCCC[C@]1(CC)CS(=O)(=O)c2cc(OC)ccc2[C@@H](c2ccccc2)[C@H]1O [Example 25, (3a,4b,5b) 3-Butyl-3-ethyl-4-hydroxy-8-methoxy-5-phenyl-2,3,4,5-tetrahydrobenzothiepine-1,1-dioxide], the “24 HR. FECAL Wt (G)” value was 2.4 (0.04) G.
